Where two headings read alike, the source gives them in different places.
Molecular target: T1, recombinant human NaV1.8 stably transfected HEK cells (Homo sapiens, UniProt Q9Y5Y9)
T1 construct: expressed in transfected cells; host or cells: HEK cells, stably transfected
Experiment: Compound profiling on NaV1.8, human NaV1.8 cell line, SyncroPatch384PE automated patch clamp assay (Example 102, first set of compounds, Table 16)
Type: cell-based
Details: human NaV1.8 HEK cells, Table 16 (first set of compounds)
Description: Compound Profiling on NaV1.8—Human NaV1.8 Cell Line—SyncroPatch384PE Assay
Compounds were tested on recombinant human NaV1.8 stably transfected HEK cells using the SyncroPatch384PE system, an automated patch clamp device. Cells were cultured at 37° C./5% CO2 in DMEM medium supplemented with GlutaMAX I, NEAA 1%, FBS 10% and seeded in T175 flasks. Cells were cultured at 30° C. one day prior to recording sodium currents. On the day of the recordings, cells were detached with 0.05% Trypsin-EDTA, resuspended in serum free DMEM medium and placed into the SyncroPatch384PE 6° C. pre-cooled cell hotel and shaken at 200 rpm. Intracellular solution (IC) contained, in mM: 10, CsCl; 110, CsF; 20, EGTA; 10, HEPES. Extracellular solution (EC) contained, in mM: 140, NaCl; 4, KCl; 5, Glucose; 10, HEPES; 2, CaCl2; 1, MgCl2. Washing solution contained, in mM: 40, NMDG; 100, NaCl; 4, KCl; 10, Glucose; 10, HEPES; 5, CaCl2; 1, MgCl2.
Compounds were tested in triplicate in 0.1% DMSO and 0.030% Pluronic Acid. Compounds were diluted 1:3 in EC solution to create a 10-point concentration response curve, spanning a final concentration range from 20-0.001 μM in the assay plate. Each plate contained tetracaine and another tool compound as positive controls. Up to 8 compounds were tested on one plate. 250 μM tetracaine and 0.1% DMSO were used as high and low controls, respectively. Whole cell patch clamp recordings were conducted according to Nanion's standard procedure for SyncroPatch384PE®. Cells were held at a holding potential of −120 mV. A depolarization step to 10 mV for 30 ms was applied (P1 measurement), followed by a hyperpolarization step to −100 mV for 100 ms. An inactivation step at −40 mV for 10 sec was applied before stepping to −100 mV for 20 ms, followed by a step to 10 mV for 30 ms (P2 measurement) and then back to −100 mV for 30 ms. Sweep interval was 15 sec with a sampling rate of 10 kHz. Following establishment of the whole-cell configuration in EC, two washing steps with reference buffer were performed to stabilize the baseline. Compounds were then applied by the SynchroPatch into each well and the current was recorded for five minutes in EC, followed by application of tetracaine to achieve full block at the end of the experiment. The potency of the compounds was assessed on two read-outs, resting state block (P1 measurement) or inactivated state block (P2 measurement) to obtain IC50 values. Values were normalized to high (tetracaine) and low (DMSO) controls. The IC50 values are listed in Table 16 as follows: “A” represents an IC50 less than or equal to 20 nM, “B” represents an IC50 greater than 20 nM to less than or equal to 40 nM, “C” represents an IC50 greater than 40 nM to less than or equal to 200 nM, “D” represents an IC50 greater than 200 nM to less than or equal to 500 nM.

[1] = inactivated state block (P2 measurement), read-out: P2IC50
[2] = resting state block (P1 measurement), read-out: P1IC50

T1 sequence (Q9Y5Y9 whole entry): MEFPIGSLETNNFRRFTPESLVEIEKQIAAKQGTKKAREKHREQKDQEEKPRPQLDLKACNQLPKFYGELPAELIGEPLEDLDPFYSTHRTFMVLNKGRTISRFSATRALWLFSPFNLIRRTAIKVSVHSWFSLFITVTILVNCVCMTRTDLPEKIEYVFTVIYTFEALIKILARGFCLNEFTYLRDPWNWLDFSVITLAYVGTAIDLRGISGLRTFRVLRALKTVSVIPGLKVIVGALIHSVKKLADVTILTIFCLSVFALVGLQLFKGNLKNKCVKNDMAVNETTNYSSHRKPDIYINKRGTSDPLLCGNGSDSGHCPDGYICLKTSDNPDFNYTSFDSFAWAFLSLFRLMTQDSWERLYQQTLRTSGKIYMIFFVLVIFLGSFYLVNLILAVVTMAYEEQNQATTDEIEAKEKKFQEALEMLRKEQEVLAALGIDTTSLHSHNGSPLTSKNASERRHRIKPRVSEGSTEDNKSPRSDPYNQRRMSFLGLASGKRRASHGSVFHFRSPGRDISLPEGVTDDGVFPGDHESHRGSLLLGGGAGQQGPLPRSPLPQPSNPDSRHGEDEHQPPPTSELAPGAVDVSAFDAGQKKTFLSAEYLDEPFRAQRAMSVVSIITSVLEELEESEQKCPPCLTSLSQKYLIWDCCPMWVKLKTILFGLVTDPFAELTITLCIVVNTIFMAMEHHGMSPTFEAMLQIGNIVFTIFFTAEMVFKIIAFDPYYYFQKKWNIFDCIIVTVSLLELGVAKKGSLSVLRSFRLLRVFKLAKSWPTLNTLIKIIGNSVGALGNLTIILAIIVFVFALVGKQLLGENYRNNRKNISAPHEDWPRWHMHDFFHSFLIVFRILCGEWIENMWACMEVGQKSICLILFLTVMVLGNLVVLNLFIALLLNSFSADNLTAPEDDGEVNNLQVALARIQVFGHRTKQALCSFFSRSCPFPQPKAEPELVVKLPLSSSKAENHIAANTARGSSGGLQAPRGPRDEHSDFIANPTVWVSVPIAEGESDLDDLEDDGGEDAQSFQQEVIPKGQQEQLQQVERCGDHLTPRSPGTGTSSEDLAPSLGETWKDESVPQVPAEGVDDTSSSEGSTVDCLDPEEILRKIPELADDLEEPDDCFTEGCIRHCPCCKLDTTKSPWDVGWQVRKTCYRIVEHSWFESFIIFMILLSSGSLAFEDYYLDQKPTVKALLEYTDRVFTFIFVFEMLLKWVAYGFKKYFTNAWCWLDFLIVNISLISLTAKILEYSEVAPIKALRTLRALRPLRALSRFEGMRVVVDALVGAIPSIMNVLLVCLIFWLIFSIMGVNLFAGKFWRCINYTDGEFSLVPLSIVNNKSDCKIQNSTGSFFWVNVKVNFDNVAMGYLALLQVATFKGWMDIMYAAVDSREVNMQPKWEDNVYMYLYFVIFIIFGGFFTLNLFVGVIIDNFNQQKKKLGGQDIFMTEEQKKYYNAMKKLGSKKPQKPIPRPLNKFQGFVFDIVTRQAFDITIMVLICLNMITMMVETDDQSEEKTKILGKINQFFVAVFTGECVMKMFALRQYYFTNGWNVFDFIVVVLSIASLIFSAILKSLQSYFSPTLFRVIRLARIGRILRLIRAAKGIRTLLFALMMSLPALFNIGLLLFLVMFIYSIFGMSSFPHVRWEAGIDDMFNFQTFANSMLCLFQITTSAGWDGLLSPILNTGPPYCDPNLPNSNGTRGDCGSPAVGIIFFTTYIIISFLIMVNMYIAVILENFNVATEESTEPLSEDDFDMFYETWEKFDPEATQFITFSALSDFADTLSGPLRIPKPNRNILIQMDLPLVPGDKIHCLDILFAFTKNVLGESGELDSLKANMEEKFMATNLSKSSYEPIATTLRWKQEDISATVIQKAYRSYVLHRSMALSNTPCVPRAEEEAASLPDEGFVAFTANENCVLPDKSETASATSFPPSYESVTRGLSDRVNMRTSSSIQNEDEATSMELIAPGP

IC50 [1]	IC50 [2]	Structure (SMILES)
≤ 20 nM	≤ 20 nM	CCc1c(C(F)(F)F)nnc(Oc2ccc(F)cc2OC)c1C(=O)Nc1cccc([S@@](C)(=N)=O)c1 [Compound 1518, (S)-5-ethyl-3-(4-fluoro-2-methoxyphenoxy)-N-(3-(S-methylsulfonimidoyl)phenyl)-6-(trifluoromethyl)pyridazine-4-carboxamide]
200 to 500 nM	200 to 500 nM	COc1cc(C#N)ccc1Oc1nnc(C2=CCN(C(C)=O)CC2)c(C)c1C(=O)Nc1cccc(S(C)(=N)=O)c1 (stereo not drawn) [Compound 1554, 6-(1-acetyl-3,6-dihydro-2H-pyridin-4-yl)-3-(4-cyano-2-methoxy-phenoxy)-5-methyl-N-[3-(methylsulfonimidoyl)phenyl]pyridazine-4-carboxamide]
40 to 200 nM	40 to 200 nM	COc1cc(C#N)ccc1Oc1nnc(C2=CCOC2)c(C)c1C(=O)Nc1cccc(S(C)(=N)=O)c1 (stereo not drawn) [Compound 1556, 3-(4-cyano-2-methoxy-phenoxy)-6-(2,5-dihydrofuran-3-yl)-5-methyl-N-[3-(methylsulfonimidoyl)phenyl]pyridazine-4-carboxamide]
≤ 20 nM	≤ 20 nM	COc1ccc(-c2nnc(Oc3ccc(C#N)cc3OC)c(C(=O)Nc3cccc(S(C)(=N)=O)c3)c2C)cc1 (stereo not drawn) [Compound 1454, 3-(4-cyano-2-methoxy-phenoxy)-6-(4-methoxyphenyl)-5-methyl-N-[3-(methylsulfonimidoyl)phenyl]pyridazine-4-carboxamide]
200 to 500 nM	200 to 500 nM	COc1c(Oc2nnc3c(c2C(=O)Nc2cccc(C(N)=O)c2)CCC3)ccc(F)c1F [Compound 1417]
200 to 500 nM	200 to 500 nM	CCOc1ncc(C(F)(F)F)cc1C(=O)Nc1cccc(S(C)(=O)=O)c1 [Compound 1600]
200 to 500 nM	200 to 500 nM	CC(C)Oc1ccc(Oc2ncc(C(F)(F)F)cc2C(=O)Nc2cccc(S(C)(=N)=O)c2)c(F)c1 (stereo not drawn) [Compound 1706]
200 to 500 nM	200 to 500 nM	CS(=N)(=O)c1cccc(NC(=O)c2cc(C(F)(F)F)cnc2Oc2cnc(C(F)(F)F)nc2)c1 (stereo not drawn) [Compound 1696]
≤ 20 nM	≤ 20 nM	COc1cc(C#N)ccc1Oc1nnc(C(F)(F)F)c(C)c1C(=O)Nc1cccc(S(N)(=O)=O)c1 [Compound 1418]
200 to 500 nM	200 to 500 nM	CC(C)Oc1ccc(Oc2ncc(C(F)(F)F)cc2C(=O)Nc2cccc(C(N)=O)c2)c(F)c1 [Compound 1708]
200 to 500 nM	200 to 500 nM	Cc1c(C(F)(F)F)nnc(OCC23CC(F)(C2)C3)c1C(=O)Nc1cccc(S(C)(=N)=O)c1 (stereo not drawn) [Compound 1470, 3-[(3-fluoro-1-bicyclo[1.1.1]pentanyl)methoxy]-5-methyl-N-[3-(methylsulfonimidoyl)phenyl]-6-(trifluoromethyl)pyridazine-4-carboxamide]
≤ 20 nM	≤ 20 nM	COc1cc(F)ccc1Oc1ncc(C(F)(F)F)cc1C(=O)Nc1cccc(S(C)(=O)=O)c1 [Compound 1575]
200 to 500 nM	200 to 500 nM	COc1ncc(Oc2ncc(C(F)(F)F)cc2C(=O)Nc2cccc(C(N)=O)c2)cc1F [Compound 1698]
≤ 20 nM	≤ 20 nM	Cc1c(C(F)(F)F)nnc(Oc2ccc(OC(F)(F)F)c(F)c2F)c1C(=O)Nc1cccc(S(C)(=O)=O)c1 [Compound 1419]
40 to 200 nM	40 to 200 nM	COc1ccc(Oc2nnc(C(F)(F)F)c(C)c2C(=O)Nc2cccc(S(C)(=N)=O)c2)c(C)n1 (single isomer, unassigned) [Compound 1508, N-{3-[imino(methyl)oxo-λ^6-sulfanyl]phenyl}-3-[(6-methoxy-2-methylpyridin-3-yl)oxy]-5-methyl-6-(trifluoromethyl)pyridazine-4-carboxamide]
20 to 40 nM	20 to 40 nM	CS(=O)(=O)c1cccc(NC(=O)c2cc(C(F)(F)F)cnc2Oc2ccc(F)c3cnccc23)c1 [Compound 1583]
	≤ 20 nM	Cc1c(C(F)(F)F)nnc(Oc2ccc(Cl)cc2F)c1C(=O)Nc1cccc(S(C)(=N)=O)c1 (single isomer, unassigned) [Compound 1472, 3-(4-chloro-2-fluoro-phenoxy)-5-methyl-N-[3-(methylsulfonimidoyl)phenyl]-6-(trifluoromethyl)pyridazine-4-carboxamide]
≤ 20 nM	≤ 20 nM	Cc1nc(F)ccc1Oc1ncc(C(F)(F)F)cc1C(=O)Nc1cccc([S@](C)(=N)=O)c1 (single isomer, unassigned) [Compound 1593]
≤ 20 nM	≤ 20 nM	Cc1nc(Br)ccc1Oc1ncc(C(F)(F)F)cc1C(=O)Nc1cccc(S(C)(=N)=O)c1 (stereo not drawn) [Compound 1684]
200 to 500 nM	200 to 500 nM	Cc1nn(C)c(C)c1Oc1ncc(C(F)(F)F)cc1C(=O)Nc1cccc(S(C)(=O)=O)c1 [Compound 1611]
≤ 20 nM	≤ 20 nM	Cc1c(C(F)(F)F)nnc(Oc2ccc(OC(C)C)c(F)c2F)c1C(=O)Nc1ccnnc1 [Compound 1412]
≤ 20 nM	≤ 20 nM	COc1cc(F)ccc1Oc1nnc(C(F)(F)F)c(C)c1C(=O)Nc1ccc(C(N)=O)cc1 [Compound 1415]
40 to 200 nM	40 to 200 nM	COc1cc(C#N)ccc1Oc1nnc(-c2ccc(C)cc2)c(C)c1C(=O)Nc1cccc([S@@](C)(=N)=O)c1 [Compound 1530, 3-(4-cyano-2-methoxyphenoxy)-N-{3-[(S)-imino(methyl)oxo-λ^6-sulfanyl]phenyl}-5-methyl-6-(4-methylphenyl)pyridazine-4-carboxamide]
200 to 500 nM	200 to 500 nM	Cc1cc(F)ccc1Oc1nnc(C(F)(F)F)c(C)c1C(=O)Nc1cc(C(N)=O)cc(S(C)(=O)=O)c1 [Compound 1407]
40 to 200 nM	200 to 500 nM	COc1ccc(-c2nnc(Oc3ccc(C#N)cc3OC)c(C(=O)Nc3cccc([S@](C)(=N)=O)c3)c2C)cn1 [Compound 1733, (R)-3-(4-cyano-2-methoxyphenoxy)-6-(6-methoxypyridin-3-yl)-5-methyl-N-(3-(S-methylsulfonimidoyl)phenyl)pyridazine-4-carboxamide]
200 to 500 nM	200 to 500 nM	N#CC1CC(Oc2ncc(C(F)(F)F)cc2C(=O)Nc2ccc(C(N)=O)cc2)C1 (mixture of isomers) [Compound 1671]

Structure (SMILES)	IC50 [1]	IC50 [2]
Cc1nc(OC2CCC2)ccc1Oc1nnc(C(F)(F)F)c(C)c1C(=O)Nc1cccc(S(C)(=N)=O)c1 (single isomer, unassigned) [Compound 1499, 3-((6-cyclobutoxy-2-methylpyridin-3-yl)oxy)-5-methyl-N-(3-(S-methylsulfonimidoyl)phenyl)-6-(trifluoromethyl)pyridazine-4-carboxamide]	40 to 200 nM	40 to 200 nM
Cc1c(C(F)(F)F)nnc(Oc2ccc(OC3CCC3)c(F)c2F)c1C(=O)Nc1cccc(S(C)(=N)=O)c1 (stereo not drawn) [Compound 1492, 3-[4-(cyclobutoxy)-2,3-difluoro-phenoxy]-5-methyl-N-[3-(methylsulfonimidoyl)phenyl]-6-(trifluoromethyl)pyridazine-4-carboxamide]	≤ 20 nM	≤ 20 nM
Cc1nc(OC2CCC2)ccc1Oc1ncc(C(F)(F)F)cc1C(=O)Nc1ccc(C(N)=O)cc1 [Compound 1566, N-(4-carbamoylphenyl)-2-[[6-(cyclobutoxy)-2-methyl-3-pyridyl]oxy]-5-(trifluoromethyl)pyridine-3-carboxamide]	200 to 500 nM	200 to 500 nM
